Results reported in patent US20150105252A1, “SUBSTITUTED PYRAZOLES AS HERBICIDES” (E I DU PONT DE NEMOURS AND COMPANY, priority 2013, published 2015).

Tests used:
wheat, winter = experiment: Test D postemergence; assay type: in vivo, Triticum aestivum; settings: scale 0 to 100
From the text: (§1) Seeds of plant species selected from bluegrass (annual bluegrass, Poa annua), blackgrass (Alopecurus myosuroides), canarygrass (littleseed canarygrass, Phalaris minor), chickweed (common chickweed, Stellaria media), galium (catchweed bedstraw, Galium aparine), bromegrass, downy (downy bromegrass, Bromus tectorum), field poppy (Papaver rhoeas), field violet (Viola arvensis), foxtail, green (green foxtail, Setaria viridis), deadnettle (henbit deadnettle, Lamium amplexicaule), ryegrass, Italian (Italian ryegrass, Lolium multiflorum), kochia (Kochia scoparia), lambsquarters (Chenopodium album), oilseed rape (Brassica napus), pigweed (redroot pigweed, Amaranthus retroflexus), chamomile (scentless chamomile, Matricaria inodora), speedwell (bird's-eye speedwell, Veronica persica), barley, spring (spring barley, Hordeum vulgare), wheat, spring (spring wheat, Triticum aestivum), buckwheat, wild (wild buckwheat, Polygonum convolvulus), mustard, wild (wild mustard, Sinapis arvensis), oat, wild (wild oat, Avena fatua), radish, wild (wild radish, Raphanus raphanistrum), windgrass (Apera spica-venti), Russian thistle (Salsola kali), barley, winter (winter barley, Hordeum vulgare), and wheat, winter (winter wheat, Triticum aestivum) were planted into a silt loam soil and treated preemergence with test chemicals formulated in a non-phytotoxic solvent mixture which included a surfactant.
(§2) At the same time, these species were planted in pots containing Redi-Earth® planting medium (Scotts Company, 14111 Scottslawn Road, Marysville, Ohio 43041) comprising spaghnum peat moss, vermiculite, wetting agent and starter nutrients and treated with postemergence applications of the test chemicals formulated in the same manner. Plants ranged in height from 2 to 18 cm (1- to 4-leaf stage). Treated plants and controls were maintained in a controlled growth environment for 14 to 21 days after which time all species were compared to controls and visually evaluated. Plant response ratings, summarized in Table D, are based on a scale of 0 to 100 where 0 is no effect and 100 is complete control. A dash (-) response means no test result.

wheat, spring = experiment: Test D postemergence; assay type: in vivo, Triticum aestivum; settings: scale 0 to 100
From the text: as §1, §2

oat, wild = experiment: Test D postemergence; assay type: in vivo, Avena fatua; settings: scale 0 to 100
From the text: as §1, §2

speedwell = experiment: Test D postemergence; assay type: in vivo, Veronica persica; settings: scale 0 to 100
From the text: as §1, §2

kochia = experiment: Test D preemergence; assay type: in vivo, Kochia scoparia; settings: Preemergence, scale 0 to 100
From the text: as §1, §2

canarygrass = experiment: Test D preemergence; assay type: in vivo, Phalaris minor; settings: Preemergence, scale 0 to 100
From the text: as §1, §2

deadnettle = experiment: Test D preemergence; assay type: in vivo, Lamium amplexicaule; settings: Preemergence, scale 0 to 100
From the text: as §1, §2

mustard, wild = experiment: Test D preemergence; assay type: in vivo, Sinapis arvensis; settings: Preemergence, scale 0 to 100
From the text: as §1, §2

lambsquarters [1] = experiment: Test D preemergence; assay type: in vivo, Chenopodium album; settings: Preemergence, scale 0 to 100
From the text: as §1, §2

barley, spring = experiment: Test D postemergence; assay type: in vivo, Hordeum vulgare; settings: scale 0 to 100
From the text: as §1, §2

barley, winter = experiment: Test D postemergence; assay type: in vivo, Hordeum vulgare; settings: scale 0 to 100
From the text: as §1, §2

foxtail, green = experiment: Test D postemergence; assay type: in vivo, Setaria viridis; settings: scale 0 to 100
From the text: as §1, §2

ryegrass, Italian = experiment: Test D preemergence; assay type: in vivo, Lolium multiflorum; settings: Preemergence, scale 0 to 100
From the text: as §1, §2

bromegrass, downy = experiment: Test D postemergence; assay type: in vivo, Bromus tectorum; settings: scale 0 to 100
From the text: as §1, §2

field poppy = experiment: Test D postemergence; assay type: in vivo, Papaver rhoeas; settings: scale 0 to 100
From the text: as §1, §2

buckwheat, wild = experiment: Test D preemergence; assay type: in vivo, Polygonum convolvulus; settings: Preemergence, scale 0 to 100
From the text: as §1, §2

lambsquarters [2] = experiment: Test D postemergence; assay type: in vivo, Chenopodium album; settings: scale 0 to 100
From the text: as §1, §2

Structure (SMILES): CCCc1cc(C(=O)NC2CC2)nn1Cc1cc(C(F)(F)F)nn1C [Compound 202]
- Wheat, Winter plant response rating (wheat, winter; Postemergence, 31 g ai/ha): 15
- Wheat, Winter plant response rating (wheat, winter; Postemergence, 125 g ai/ha): 20
- Wheat, Winter plant response rating (wheat, winter; Postemergence, 250 g ai/ha): 25
- Wheat, Winter plant response rating (wheat, winter; postemergence, 62 g ai/ha): 15
- Wheat, Spring plant response rating (wheat, spring; Postemergence, 31 g ai/ha): 10
- Wheat, Spring plant response rating (wheat, spring; Postemergence, 125 g ai/ha): 10
- Wheat, Spring plant response rating (wheat, spring; Postemergence, 250 g ai/ha): 20
- Wheat, Spring plant response rating (wheat, spring; postemergence, 62 g ai/ha): 10
- Oat, Wild plant response rating (oat, wild; Postemergence, 31 g ai/ha): 25
- Oat, Wild plant response rating (oat, wild; Postemergence, 125 g ai/ha): 30
- Oat, Wild plant response rating (oat, wild; Postemergence, 250 g ai/ha): 40
- Oat, Wild plant response rating (oat, wild; postemergence, 62 g ai/ha): 25
- Speedwell plant response rating (speedwell; Postemergence, 31 g ai/ha): 70
- Speedwell plant response rating (speedwell; Postemergence, 125 g ai/ha): 75
- Speedwell plant response rating (speedwell; Postemergence, 250 g ai/ha): 100
- Speedwell plant response rating (speedwell; postemergence, 62 g ai/ha): 70
- Plant response rating, Kochia (kochia; 62 g ai/ha): 100
- Plant response rating, Kochia (kochia; 125 g ai/ha): 100
- Plant response rating, Kochia (kochia; 250 g ai/ha): 100
- Plant response rating, Canarygrass (canarygrass; 31 g ai/ha): 10
- Plant response rating, Canarygrass (canarygrass; 62 g ai/ha): 40
- Plant response rating, Canarygrass (canarygrass; 125 g ai/ha): 75
- Plant response rating, Canarygrass (canarygrass; 250 g ai/ha): 85
- Plant response rating, Deadnettle (deadnettle; 31 g ai/ha): 100
- Plant response rating, Deadnettle (deadnettle; 62 g ai/ha): 100
- Plant response rating, Deadnettle (deadnettle; 125 g ai/ha): 100
- Plant response rating, Deadnettle (deadnettle; 250 g ai/ha): 100
- Plant response rating, Mustard, Wild (mustard, wild; 62 g ai/ha): 100
- Plant response rating, Mustard, Wild (mustard, wild; 125 g ai/ha): 100
- Plant response rating, Mustard, Wild (mustard, wild; 250 g ai/ha): 100
- Plant response rating, Lambsquarters (lambsquarters [1]; 62 g ai/ha): 75
- Plant response rating, Lambsquarters (lambsquarters [1]; 125 g ai/ha): 100
- Plant response rating, Lambsquarters (lambsquarters [1]; 250 g ai/ha): 100
- Barley, Spring plant response rating (barley, spring; Postemergence, 31 g ai/ha): 20
- Barley, Spring plant response rating (barley, spring; Postemergence, 125 g ai/ha): 25
- Barley, Spring plant response rating (barley, spring; Postemergence, 250 g ai/ha): 30
- Barley, Spring plant response rating (barley, spring; postemergence, 62 g ai/ha): 20
- Barley, Winter plant response rating (barley, winter; Postemergence, 31 g ai/ha): 15
- Barley, Winter plant response rating (barley, winter; Postemergence, 125 g ai/ha): 15
- Barley, Winter plant response rating (barley, winter; Postemergence, 250 g ai/ha): 25
- Barley, Winter plant response rating (barley, winter; postemergence, 62 g ai/ha): 15
- Foxtail, Green plant response rating (foxtail, green; Postemergence, 31 g ai/ha): 20
- Foxtail, Green plant response rating (foxtail, green; Postemergence, 125 g ai/ha): 20
- Foxtail, Green plant response rating (foxtail, green; Postemergence, 250 g ai/ha): 30
- Foxtail, Green plant response rating (foxtail, green; postemergence, 62 g ai/ha): 20
- Plant response rating, Ryegrass, Italian (ryegrass, Italian; 62 g ai/ha): 0
- Plant response rating, Ryegrass, Italian (ryegrass, Italian; 125 g ai/ha): 40
- Plant response rating, Ryegrass, Italian (ryegrass, Italian; 250 g ai/ha): 80
- Bromegrass, Downy plant response rating (bromegrass, downy; Postemergence, 31 g ai/ha): 25
- Bromegrass, Downy plant response rating (bromegrass, downy; Postemergence, 125 g ai/ha): 35
- Bromegrass, Downy plant response rating (bromegrass, downy; Postemergence, 250 g ai/ha): 35
- Bromegrass, Downy plant response rating (bromegrass, downy; postemergence, 62 g ai/ha): 25
- Field Poppy plant response rating (field poppy; Postemergence, 31 g ai/ha): 50
- Field Poppy plant response rating (field poppy; Postemergence, 125 g ai/ha): 50
- Field Poppy plant response rating (field poppy; Postemergence, 250 g ai/ha): 75
- Field Poppy plant response rating (field poppy; postemergence, 62 g ai/ha): 50
- Plant response rating, Buckwheat, Wild (buckwheat, wild; 31 g ai/ha): 35
- Plant response rating, Buckwheat, Wild (buckwheat, wild; 62 g ai/ha): 60
- Plant response rating, Buckwheat, Wild (buckwheat, wild; 125 g ai/ha): 100
- Plant response rating, Buckwheat, Wild (buckwheat, wild; 250 g ai/ha): 100
- Lambsquarters plant response rating (lambsquarters [2]; Postemergence, 31 g ai/ha): 50
- Lambsquarters plant response rating (lambsquarters [2]; Postemergence, 125 g ai/ha): 60
- Lambsquarters plant response rating (lambsquarters [2]; Postemergence, 250 g ai/ha): 80
- Lambsquarters plant response rating (lambsquarters [2]; postemergence, 62 g ai/ha): 50
